# According to US9902735B2, “Heteroaryl substituted compounds as RORγ inhibitors” (GlaxoSmithKline Intellectual Property Developement Limited, priority 2014, dated 2018):
# Key:
# C57BL/6NTac mice [1] = assay: Imiquimod-induced skin inflammation, ears and back skin: RORγ-dependent gene expression and ex vivo stimulated whole blood IL-17A; type: in vivo, mouse
# Source text: (§1) Imiquimod is an immune modifying agent that potently activates specific Toll-like receptors (e.g., TLR7) and induces irritation/inflammation of the skin that requires the IL23R/RORγ/IL17 axis of the immune system (van der Fits et al, (2009) J Immunol; 182:5836-5845; Gray et al, (2013) Nature Immunol; June; 14(6):584-92). The imiquimod-induced skin inflammation model can be used to assess the ability of an RORγ inhibitor to reduce Th17-driven inflammation in mice. For the ear-only skin inflammation model in which ear thickness was measured with digital engineer's calipers (Mitutoyo PK-0505), female wild type C57BL/6NTac mice obtained from Taconic (Hudson, N.Y.) at 8 to 12 wk of age received a daily topical dose of 10 mg of commercially available imiquimod cream (5%) (Aldara; Medicis) distributed over both ears at approximately 11:00 h for up to 4 consecutive days. Alternatively, 72 mg of Aldara was distributed over both ears and the shaved/depiliated back skin of mice at approximately 11:00 h for 3 consecutive days to examine RORγ-dependent gene expression (RNA isolated from both ears using Qiazol followed by clean-up on with the RNeasy protocol (Qiagen, Germantown, Md.); Taqman probe/primer sets for B2M (Mm00437762_ml), IL-17A (Mm00439619_ml), IL-17F (Mm00521423_ml), or IL-22 (Mm00444241_ml) (Thermo Fisher Scientific, Inc., Waltham, Mass.) and ex vivo stimulated (anti-CD3 (2 μg/ml, clone eBio500A2, eBioscience, San Diego, Calif.), anti-CD28 (1 μg/ml, clone 37.51, BD Bioscience, San Jose, Calif.), recombinant mouse IL-13 (20 ng/ml, R&D Systems, Minneapolis, Minn.), and recombinant mouse IL-23 (20 ng/ml, R&D Systems, Minneapolis, Minn.) IL-17A protein expression from whole blood (Meso Scale Discovery, Rockville, Md.). For treatment of the skin inflammation in these models, each compound or vehicle (methylcellulose in water, 1% w/v, Sigma Aldrich, St. Louis, Mo.) was administered via oral gavage at approximately 08:00 h and 16:00 h daily at various doses selected from 1, 3, 10, and 30 mg/kg.
# C57BL/6NTac mice [2] = assay: Imiquimod-induced skin inflammation, ear-only model (ear thickness); type: in vivo, mouse; conditions: for imiquimod-induced ear thickening: oral gavage twice daily, Studies 1-4
# Source text: as §1
smiles,measurement,setting,value
"Cc1c(CN2CCN(C(=O)C3CCCC3)[C@@H](C)C2)cc(Cl)cc1NC(=O)CCS(C)(=O)=O [Example 43, (S)—N-(5-chloro-3-((4-(cyclopentanecarbonyl)-3-methylpiperazin-1-yl)methyl)-2-methylphenyl)-3-(methylsulfonyl)propanamide]",IL17A protein expressed following ex vivo stimulation of whole blood,"C57BL/6NTac mice [1]; study A, 10 mg/kg oral",significantly reduced
same,"ear mRNA levels of IL17A, IL17F, or IL22","C57BL/6NTac mice [1]; study A, 10 mg/kg oral",no significant reduction
same,IL17F mRNA levels in the ear skin,"C57BL/6NTac mice [1]; study B, 10 mg/kg oral",significantly reduced
same,IL22 mRNA levels in the ear skin,"C57BL/6NTac mice [1]; study B, 10 mg/kg oral",significantly reduced
same,IL17A mRNA levels in the ear skin,C57BL/6NTac mice [1]; study C,reached statistical significance
same,imiquimod-induced ear thickening,C57BL/6NTac mice [2]; 10 mg/kg,statistically significant reduction
same,imiquimod-induced ear thickening,C57BL/6NTac mice [2]; 30 mg/kg,statistically significant reduction
same,"imiquimod-induced ear thickening, versus vehicle (FIG. 1)","C57BL/6NTac mice [2]; FIG. 1, dose not stated",statistically significant reduction
